Tested on: HCV 1b genotype
Assay: microbe, parasite or virus in culture
Type: cell-based, Hepatitis C virus
Details: HCV 1b replicon; read-out: Range: EC50 ranges against HCV 1b
Protocol: An HCV Replicon assay was utilized in the present disclosure, and was prepared, conducted and validated as described in commonly owned PCT/US2006/022197 and in O'Boyle et. al. Antimicrob Agents Chemother. 2005 April; 49(4):1346-53. Assay methods incorporating luciferase reporters have also been used as described (Apath.com).
HCV-neo replicon cells and replicon cells containing resistance substitutions in the NS5A region were used to test the currently described family of compounds.

`COC(=O)NC(C(=O)N1C(c2ncc(-c3ccc(C#Cc4ccc(-c5cnc(C6CC7CC7N6C(=O)C(NC(=O)OC)C6CCOC7(CC7)C6)[nH]5)cc4)cc3)[nH]2)CC2CC21)C1CCOC2(CC2)C1` [OL4, dimethyl (((1R,1′R,3S,3′S,5R,5′R)-3,3′-(5,5′-(ethyne-1,2-diylbis(4,1-phenylene))bis(1H-imidazole-5,2-diyl))bis(2-azabicyclo[3.1.0]hexane-3,2-diyl))bis(2-oxo-1-(4-oxaspiro[2.5]octan-7-yl)ethane-2,1-diyl))dicarbamate] and `COC(=O)NC(C(=O)N1CCCC1c1ncc(-c2ccc(C#Cc3ccc(-c4cnc(C5CCCN5C(=O)C(NC(=O)OC)C5CCOC6(CC6)C5)[nH]4)cc3)cc2)[nH]1)C1CCOC2(CC2)C1` [OL7, dimethyl (((2S,2′S)-2,2′-(5,5′-(ethyne-1,2-diylbis(4,1-phenylene))bis(1H-imidazole-5,2-diyl))bis(pyrrolidine-2,1-diyl))bis(2-oxo-1-(4-oxaspiro[2.5]octan-7-yl)ethane-2,1-diyl))dicarbamate] fall in the same range of EC50: 0.00501 to 0.1 nM for the first, 0.00501 to 0.1 nM for the second.

First: COC(=O)NC(C(=O)N1CCCC1c1nc2cc(C#Cc3ccc4[nH]c(C5CCCN5C(=O)C(NC(=O)OC)C5CCOC6(CC6)C5)nc4c3)ccc2[nH]1)C1CCOC2(CC2)C1 [OL9, dimethyl (((2S,2′S)-2,2′-(5,5′-(ethyne-1,2-diyl)bis(1H-benzo[d]imidazole-5,2-diyl))bis(pyrrolidine-2,1-diyl))bis(2-oxo-1-(4-oxaspiro[2.5]octan-7-ypethane-2,1-diyl))dicarbamate]
Second: COC(=O)NC(C(=O)N1C[C@@H](C)C[C@H]1c1nc2cc(C#Cc3ccc4c(ccc5nc([C@@H]6C[C@H](C)CN6C(=O)C(NC(=O)OC)C6CCOC7(CC7)C6)[nH]c54)c3)ccc2[nH]1)C1CCOC2(CC2)C1 (some centres unmarked) [QC9]
The EC50 of the first is higher: 0.1 to 0.9 nM for the first, 0.00501 to 0.1 nM for the second.

Work on “dimethyl (1H,1′H-7,7′-binaphtho[1,2-d]imidazole-2,2′-diylbis((2S)-2,1-pyrrolidinediyl(1-(4-oxaspiro[2.5]oct-7-yl)-2-oxo-2,1-ethanediyl)))biscarbamate [QC13]” yielded an EC50 of 0.00501 to 0.1 nM.

Same assay, conditions: Hepatitis C virus, HCV 1b replicon; read-out: 1b (μM): EC50 (Effective 50% inhibitory concentration) against the HCV 1b genotype

Compared with `COC(=O)NC(C(=O)N1CCC[C@H]1c1nc(-c2ccc(-c3c[nH]c([C@@H]4CCCN4C(=O)C(NC(=O)OC)C4CCOC5(CC5)C4)n3)cc2)c[nH]1)C1CCOC2(CC2)C1` (stereo partly drawn) [Example QC14, dimethyl (benzene-1,4-diylbis(1H-imidazole-4,2-diyl(2S)pyrrolidine-2,1-diyl(1-(4-oxaspiro[2.5]oct-7-yl)-2-oxoethane-2,1-diyl)))biscarbamate], `COC(=O)NC(C(=O)N1CCC[C@H]1c1nc2cc(-c3ccc4c(ccc5nc([C@@H]6CCCN6C(=O)C(NC(=O)OC)C6CCOC7(CC7)C6)[nH]c54)c3)ccc2[nH]1)C1CCOC2(CC2)C1` (stereo partly drawn) [QC10, methyl (2-((2S)-2-(7-(2-((2S)-1-(((methoxycarbonyl)amino)(4-oxaspiro[2.5]oct-7-yl)acetyl)-2-pyrrolidinyl)-1H-benzimidazol-5-yl)-1H-naphtho[1,2-d]imidazol-2-yl)-1-pyrrolidinyl)-1-(4-oxaspiro[2.5]oct-7-yl)-2-oxoethyl)carbamate] is 56-fold lower in EC50: 14.5 nM for the first, 0.259 nM for the second. The second is the more potent here.

Same assay, conditions: Hepatitis C virus, HCV 1b replicon; read-out: Range: EC50 ranges against HCV 1b

First: COC(=O)N[C@H](C(=O)N1[C@@H]2C[C@@H]2C[C@H]1c1nc(-c2ccc(-c3ccc(-c4c[nH]c([C@@H]5C[C@H]6C[C@H]6N5C(=O)[C@@H](NC(=O)OC)C5CCC(=O)CC5)n4)cc3)cc2)c[nH]1)C1CCC(=O)CC1 [Example OL10, dimethyl (4,4′-biphenyldiylbis(1H-imidazole-4,2-diyl(1R,3S,5R)-2-azabicyclo[3.1.0]hexane-3,2-diyl((1S)-2-oxo-1-(4-oxocyclohexyl)-2,1-ethanediyl)))biscarbamate]
Second: COC(=O)N[C@H](C(=O)N1[C@@H]2C[C@@H]2C[C@H]1c1nc(-c2ccc(-c3ccc(-c4c[nH]c([C@@H]5C[C@H]6C[C@H]6N5C(=O)[C@@H](NC(=O)OC)C56CC(C(F)(F)F)(C5)C6)n4)cc3)cc2)c[nH]1)C12CC(C(F)(F)F)(C1)C2 [Example OL11, dimethyl (4,4′-biphenyldiylbis(1H-imidazole-4,2-diyl(1R,3S,5R)-2-azabicyclo[3.1.0]hexane-3,2-diyl((1S)-2-oxo-1-(3-(trifluoromethyl)bicyclo[1.1.1]pent-1-yl)-2,1-ethanediyl)))biscarbamate]
The EC50 of the first is higher: 0.1 to 0.9 nM for the first, 0.00501 to 0.1 nM for the second.

Compared with `COC(=O)NC(C(=O)N1CCC[C@H]1c1nc(-c2ccc(-c3c[nH]c([C@@H]4CCCN4C(=O)C(NC(=O)OC)C4CCOC5(CC5)C4)n3)cc2)c[nH]1)C1CCOC2(CC2)C1` (stereo partly drawn) [Example QC14, dimethyl (benzene-1,4-diylbis(1H-imidazole-4,2-diyl(2S)pyrrolidine-2,1-diyl(1-(4-oxaspiro[2.5]oct-7-yl)-2-oxoethane-2,1-diyl)))biscarbamate], `COC(=O)NC(C(=O)N1CCC[C@H]1c1ncc(-c2ccc(-c3ccc(-c4cnc([C@@H]5CCCN5C(=O)C(NC(=O)OC)C5CCOC6(CC6)C5)[nH]4)cn3)cc2)[nH]1)C1CCOC2(CC2)C1` (stereo partly drawn) [OL6, methyl (2-((2S)-2-(5-(6-(4-(2-((2S)-1-(((methoxycarbonyl)amino)(4-oxaspiro[2.5]oct-7-yl)acetyl)pyrrolidin-2-yl)-1H-imidazol-5-yl)phenyl)pyridin-3-yl)-1H-imidazol-2-yl)pyrrolidin-1-yl)-1-(4-oxaspiro[2.5]oct-7-yl)-2-oxoethyl)carbamate] is lower in EC50: 0.9 to 700 nM for the first, 0.1 to 0.9 nM for the second.

Compared with `COC(=O)NC(C(=O)N(C)[C@@H](C)c1nc2cc(C#Cc3ccc4nc([C@H](C)N(C)C(=O)C(NC(=O)OC)C5CCOC6(CC6)C5)[nH]c4c3)ccc2[nH]1)C1CCOC2(CC2)C1` (stereo partly drawn) [OL2, methyl (2-(((1S)-1-(5-((2-((1S)-1-((((methoxycarbonyl)amino)(4-oxaspiro[2.5]oct-7-yl)acetyl)(methyl)amino)ethyl)-1H-benzimidazol-6-yl)ethynyl)-1H-benzimidazol-2-yl)ethyl)(methyl)amino)-1-(4-oxaspiro[2.5]oct-7-yl)-2-oxoethyl)carbamate], `COC(=O)NC(C(=O)N1CCC[C@H]1c1nc2cc(-c3ccc4c(ccc5nc([C@@H]6CCCN6C(=O)C(NC(=O)OC)C6CCOC7(CC7)C6)[nH]c54)c3)ccc2[nH]1)C1CCOC2(CC2)C1` (stereo partly drawn) [QC10, methyl (2-((2S)-2-(7-(2-((2S)-1-(((methoxycarbonyl)amino)(4-oxaspiro[2.5]oct-7-yl)acetyl)-2-pyrrolidinyl)-1H-benzimidazol-5-yl)-1H-naphtho[1,2-d]imidazol-2-yl)-1-pyrrolidinyl)-1-(4-oxaspiro[2.5]oct-7-yl)-2-oxoethyl)carbamate] is higher in EC50: 0.00501 to 0.1 nM for the first, 0.1 to 0.9 nM for the second.

`COC(=O)NC(C(=O)N1[C@@H]2C[C@@H]2C[C@H]1c1ncc(-c2ccc(-c3ccc(-c4cnc([C@@H]5C[C@H]6C[C@H]6N5C(=O)[C@@H](NC(=O)OC)C(C)C)[nH]4)cc3)cc2)[nH]1)C1CCOC2(CC2)C1` (stereo partly drawn) [OL3, methyl ((2S)-1-((1R,3S,5R)-3-(5-(4′-(2-((1R,3S,5R)-2-(((methoxycarbonyl)amino)(4-oxaspiro[2.5]oct-7-yl)acetyl)-2-azabicyclo[3.1.0]hex-3-yl)-1H-imidazol-5-yl)biphenyl-4-yl)-1H-imidazol-2-yl)-2-azabicyclo[3.1.0]hex-2-yl)-3-methyl-1-oxobutan-2-yl)carbamate] and `COC(=O)NC(C(=O)N1[C@@H]2C[C@@H]2C[C@H]1c1nc(-c2ccc(-c3ccc4c(c3)CCc3[nH]c([C@@H]5C[C@H]6C[C@H]6N5C(=O)C(NC(=O)OC)C5CCOC6(CC6)C5)nc3-4)cc2)c[nH]1)C1CCOC2(CC2)C1` (stereo partly drawn) [QC11, methyl (2-((1R,3S,5R)-3-(4-(4-(2-((1R,3S,5R)-2-(((methoxycarbonyl)amino)(4-oxaspiro[2.5]oct-7-yl)acetyl)-2-azabicyclo[3.1.0]hex-3-yl)-4,5-dihydro-3H-naphtho[1,2-d]imidazol-7-yl)phenyl)-1H-imidazol-2-yl)-2-azabicyclo[3.1.0]hex-2-yl)-1-(4-oxaspiro[2.5]oct-7-yl)-2-oxoethyl)carbamate] fall in the same range of EC50: 0.00501 to 0.1 nM for the first, 0.00501 to 0.1 nM for the second.

Compared with `COC(=O)N[C@H](C(=O)N1[C@@H](C)CC[C@H]1c1nc(-c2ccc(-c3ccc(-c4c[nH]c([C@@H]5CC[C@H](C)N5C(=O)[C@@H](NC(=O)OC)C56CC(C(F)(F)F)(C5)C6)n4)cc3)cc2)c[nH]1)C12CC(C(F)(F)F)(C1)C2` [OL12, dimethyl (4,4′-biphenyldiylbis(1H-imidazole-4,2-diyl((2S,5S)-5-methyl-2,1-pyrrolidinediyl)((1S)-2-oxo-1-(3-(trifluoromethyl)bicyclo [1.1.1]pent-1-yl)-2,1-ethanediyl)))biscarbamate], `COC(=O)N[C@H](C(=O)N1[C@H](c2nc(-c3ccc(-c4ccc(-c5c[nH]c([C@@H]6C[C@@]7(C)C[C@H]7N6C(=O)[C@@H](NC(=O)OC)[C@H]6CCOC7(CC7)C6)n5)cc4)cc3)c[nH]2)C[C@@]2(C)C[C@@H]12)[C@H]1CCOC2(CC2)C1` [QC19, dimethyl (4,4′-biphenyldiylbis(1H-imidazole-4,2-diyl((1R,3S,5R)-5-methyl-2-azabicyclo[3.1.0]hexane-3,2-diyl)(1-(4-oxaspiro[2.5]oct-7-yl)-2-oxo-2,1-ethanediyl)))biscarbamate] is lower in EC50: 0.1 to 0.9 nM for the first, 0.00501 to 0.1 nM for the second. The second is the more potent here.

In the case of `COC(=O)NC(C(=O)N1CCC[C@H]1c1nc2cc(-c3ccc(Oc4cccc5[nH]c([C@@H]6CCCN6C(=O)C(NC(=O)OC)C6CCOC7(CC7)C6)nc45)cc3)ccc2[nH]1)C1CCOC2(CC2)C1` (stereo partly drawn) [QC15, methyl (2-((2S)-2-(5-(4-((2-((2S)-1-(((methoxycarbonyl)amino)(4-oxaspiro[2.5]oct-7-yl)acetyl)pyrrolidin-2-yl)-1H-benzimidazol-4-yl)oxy)phenyl)-1H-benzimidazol-2-yl)pyrrolidin-1-yl)-1-(4-oxaspiro[2.5]oct-7-yl)-2-oxoethyl)carbamate], the EC50 is reported as 0.00501 to 0.1 nM.

Same assay, conditions: read-out: Range: EC50 ranges against HCV 1b

First: COC(=O)NC(C(=O)N1C(c2nc(Cl)c(-c3ccc(-c4ccc(-c5[nH]c(C6CC7CC7N6C(=O)C(NC(=O)OC)C6CCOC7(CC7)C6)nc5Cl)cc4)cc3)[nH]2)CC2CC21)C1CCOC2(CC2)C1 [OL5, dimethyl (((1R,1′R,3S,3′S,5R,5′R)-3,3′-(5,5′-([1,1′-biphenyl]-4,4′-diyl)bis(4-chloro-1H-imidazole-5,2-diyl))bis(2-azabicyclo[3.1.0]hexane-3,2-diyl))bis(2-oxo-1-(4-oxaspiro[2.5]octan-7-yl)ethane-2,1-diyl))dicarbamate]
Second: COC(=O)NC(C(=O)N1CCOCC1c1ncc(-c2ccc(-c3ccc(-c4cnc(C5COCCN5C(=O)C(NC(=O)OC)C5CCOC6(CC6)C5)[nH]4)cc3)cc2)[nH]1)C1CCOC2(CC2)C1 [OL8, dimethyl (((3R,3′R)-3,3′-(5,5'-([1,1′-biphenyl]-4,4′-diyl)bis(1H-imidazole-5,2-diyl))bis(morpholine-4,3-diyl))bis(2-oxo-1-(4-oxaspiro[2.5]octan-7-yl)ethane-2,1 diyl))dicarbamate]
The EC50 of the first is lower: 0.00501 to 0.1 nM for the first, 0.1 to 0.9 nM for the second.

— patent US9561212B2, “Hepatitis C virus inhibitors” (BRISTOL-MYERS SQUIBB COMPANY, priority 2012, dated 2017)
